In PMC9569649, “Naked and Decorated Nanoparticles Containing H2S-Releasing Doxorubicin: Preparation, Characterization and Assessment of Their Antitumoral Efficiency on Various Resistant Tumor Cells” (International Journal of Molecular Sciences, 2022):
Converted amounts (≈) assume the structure as drawn. Structures can show the parent of a compound that is named as a salt. Where two headings read alike, the source gives them in different places.

Experiments:
MCF-7 cells [1] = assay: Acute cytotoxicity (release of LDH); format: cell-based, human; settings: MCF-7 (sensitive); 24 h, 5 µM
Procedure: (§1) In each of the following experimental sets, cells were incubated with specific dilutions of NPs to reach a final concentration of 5 μM H2S-DOXO, or with 5 μM DOXO or H2S-DOXO, as reference. Samples under study were: free DOXO, free H2S-DOXO, NP-H2S-DOXO 3% PVP, and HA-NP-CTAB-H2S-DOXO. Acute cytotoxicity. Culture medium from 2 × 10^6 cellule was centrifuged at 12,000 g for 15 min to pellet cell debris, while cells were washed with PBS twice, detached with trypsin/EDTA (0.05/0.02% v/v), rinsed in 0.2 mL of 82.3 mM triethanolamine phosphate-HCl (pH 7.6), and sonicated in ice with 10 s (100 W, Sonicator Labsonic); 5 μL of cell lysate was used to measure the intracellular protein content (BCA1 kit). The activity of extracellular lactate dehydrogenase (LDH), considered as an index of DOXO acute cell damage, was measured on 50 μL of cell culture medium, incubated at 37 °C with […]. The same assay was performed on 5 μL of cell lysate, to measure intracellular LDH. The kinetics of NADH oxidation was followed for 6 min measuring the absorbance at 340 nm with a Synergy HTX 96-well reader (Bio-Tek Instruments). The kinetics was linear overtime. Results were expressed as % extracellular LDH/total (extracellular+intracellular) LDH.

MDA-MB-231 cells [2] = assay: Acute cytotoxicity (release of LDH); format: cell-based, human; settings: MDA-MB-231 (resistant); 24 h, 5 µM
Procedure: as §1

U-2OS cells [3] = assay: Acute cytotoxicity (release of LDH); format: cell-based, human; settings: U-2OS (sensitive); 24 h, 5 µM
Procedure: as §1

U-2OS/DX580 cells [4] = assay: Acute cytotoxicity (release of LDH); format: cell-based, human; settings: U-2OS/DX580 (resistant); 24 h, 5 µM
Procedure: as §1

JC cells [5] = assay: Acute cytotoxicity (release of LDH); format: cell-based, murine; settings: JC (resistant); 24 h, 5 µM
Procedure: as §1

K7M2 cells [6] = assay: Acute cytotoxicity (release of LDH); format: cell-based, murine; settings: K7M2 (resistant); 24 h, 5 µM
Procedure: as §1

MDA-MB-231 cells [7] = assay: Cell viability (ATPLite); format: cell-based, human; settings: MDA-MB-231 (resistant); 72 h, 5 µM
Procedure: (§2) In each of the following experimental sets, cells were incubated with specific dilutions of NPs to reach a final concentration of 5 μM H2S-DOXO, or with 5 μM DOXO or H2S-DOXO, as reference. Samples under study were: free DOXO, free H2S-DOXO, NP-H2S-DOXO 3% PVP, and HA-NP-CTAB-H2S-DOXO. Viability. 1 × 10^5 cells were seeded in 96 well plates and incubated for 72 h with DOXO, H2S-DOXO or the different NPs. Cell viability was evaluated using the ATPLite kit (PerkinElmer, Waltham, MA), as per manufacturer’s instructions, using a Synergy-HTX 96-well reader (Bio-Tek Instruments, Winooski, VT). The relative luminescence units (RLUs) of the untreated cells were considered 100%; the RLUs of the other experimental conditions were expressed as percentage versus untreated cells.

U-2OS/DX580 cells [8] = assay: Cell viability (ATPLite); format: cell-based, human; settings: U-2OS/DX580 (resistant); 72 h, 5 µM
Procedure: as §2

JC cells [9] = assay: Cell viability (ATPLite); format: cell-based, murine; settings: JC (resistant); 72 h, 5 µM
Procedure: as §2

K7M2 cells [10] = assay: Cell viability (ATPLite); format: cell-based, murine; settings: K7M2 (resistant); 72 h, 5 µM
Procedure: as §2

K7M2 tumor = test system: K7M2 tumor; set-up: method as in PMID 31047947; settings: cited from earlier work
DU-145 cells = settings: cited from earlier work
[11] = H2S-DOXO solubility in aqueous and organic solvent; format: physicochemical; settings: room temperature (22–23 °C)
Procedure: The solubility of H2S-DOXO in water/acetonitrile (60/40 v/v ratio), methanol, 0.1 M pH 7.2 phosphate buffer, propylene glycol, and benzyl alcohol was determined as follows: an excess of H2S-DOXO was added to the organic or aqueous solution (1 mL); after 2-h equilibration at room temperature (22–23 °C) in a sealed vial under 600 rpm magnetic stirring, the suspension was centrifuged at 1397× g for 10 min, and the supernatant solution analyzed by RP-HPLC. The time needed to reach equilibrium solubility was determined by analyzing samples of the equilibrating solution at different time points to establish constant drug solubility.

[12] = H2S-DOXO stability in solvents (RP-HPLC); format: physicochemical; settings: 30-day storage at 4 °C, vs t0 (100%)
Procedure: The chemical stability of H2S-DOXO in water/acetonitrile 60/40 v/v (mobile phase for HPLC analysis) and in methanol (solvent used for extraction from NPs to determining EE%) was tested by RP-HPLC after 30-day storage (t30). In Table 2, the stability was expressed as a percentage of residual concentration at t30 compared with the concentration at t0 (100%).
H2S-DOXO stability in water/acetonitrile (60/40 v/v ratio) and methanol was determined after 30-day (t30) storage at 4 °C following the drug concentration over time by RP-HPLC and comparing it with the concentration at t0, assuming it as 100%.

[13] = H2S-DOXO stability in the presence of microemulsion ingredients (RP-HPLC); format: physicochemical; settings: water/acetonitrile 60/40 v/v; for Residual Concentration % t24: 24 h
Procedure: The chemical stability of H2S-DOXO in water/acetonitrile 60/40 v/v in the presence of µE ingredients, at the same ratio (w/w) used in the µE, was tested to select the suitable ingredients and to ensure the integrity of H2S-DOXO into the formulation. In Table 3, the stability at t0 and t24 h (t24) is expressed as percent of residual concentration in the presence of ingredients compared with that without ingredients at t0 (100%).
H2S-DOXO stability in water/acetonitrile (60/40 v/v ratio) in the presence of NaTC, NaGC, lecithin (phosphatidylcoline 95–98%), ST, CTAB, and Cremophor®RH60 was determined at t0 and after 24 h (t24) by RP-HPLC comparing the drug concentration with that in water/acetonitrile solution at t0, assuming it as 100%.

[14] = In vitro drug release (dialysis method); format: physicochemical; settings: PBS pH 7.4, 37 °C, reference: 20% propylene glycol aqueous solution
Procedure: In vitro drug release. Release of H2S-DOXO from NPs was evaluated using the dialysis method. An aliquot of HA-NP-CTAB-H2S-DOXO was placed in a dialysis bag, and the dialysis bag, sealed at the ends, was immersed into 40 mL of phosphate buffered saline (PBS, pH 7.4) at 37 °C stirring at 100 rpm. At predetermined time intervals, 1 mL PBS was withdrawn and replaced with an equal volume of fresh PBS. Release was monitored for 5 h. The overtime released H2S-DOXO was analyzed by RP-HPLC. As a reference, a 20% propylene glycol aqueous solution of H2S-DOXO was used.

MCF-7 cells [15] = assay: Cell viability (ATPLite); format: cell-based, human; settings: MCF-7 (sensitive); 72 h, 5 µM
Procedure: as §2

U-2OS cells [16] = assay: Cell viability (ATPLite); format: cell-based, human; settings: U-2OS (sensitive); 72 h, 5 µM
Procedure: as §2

[17] = set-up: method as in PMID 23973213; settings: human serum; pseudo-first-order kinetics; cited from earlier work
[18] = test system: DU-145 prostate cancer cell line; set-up: method as in PMID 29607467; settings: androgen-independent, DOXO-resistant DU-145; cited from earlier work
[19] = 3-week injection, nude mice with subcutaneous DU-145 cells

## COc1cccc2c1C(=O)c1c(O)c3c(c(O)c1C2=O)C[C@@](O)(C(=O)CO)C[C@@H]3O[C@H]1C[C@H](N)[C@H](O)[C@H](C)O1 [DOXO, doxorubicin hydrochloride]
MCF-7 cells [1]
  acute toxicity, release of LDH: comparable
MDA-MB-231 cells [2]
  acute toxicity, release of LDH: devoid of any cytotoxic effects
U-2OS cells [3]
  acute toxicity, release of LDH: comparable
U-2OS/DX580 cells [4]
  acute toxicity, release of LDH: devoid of any cytotoxic effects
JC cells [5]
  acute toxicity, release of LDH: devoid of any cytotoxic effects
K7M2 cells [6]
  acute toxicity, release of LDH: devoid of any cytotoxic effects
MDA-MB-231 cells [7]
  subacute toxicity, reduced cell viability: ineffective
U-2OS/DX580 cells [8]
  subacute toxicity, reduced cell viability: ineffective
JC cells [9]
  subacute toxicity, reduced cell viability: ineffective
K7M2 cells [10]
  subacute toxicity, reduced cell viability: ineffective
K7M2 tumor; K7M2 tumors (CD44- and Pgp-overexpressing)
  tumor growth: neither DOXO nor Caelyx® reduced the growth of these tumors
K7M2 tumor; K7M2 tumors
  apoptosis / caspase-3 activation in the tumor: nor did they induce apoptosis in the tumor
DU-145 cells; mouse, in vivo, sc
  tolerability / safety profile: associated with weight loss and cardiotoxicity

## COc1cccc2c1C(=O)c1c(O)c3c(c(O)c1C2=O)C[C@@](O)(C(=O)COC(=O)c1ccc(-c2ssc(=S)c2-c2ccccc2)cc1)C[C@@H]3O[C@H]1C[C@H](N)[C@H](O)[C@H](C)O1 [H2S-DOXO, doxorubicin 14-[4-(4-phenyl-5-thioxo-5H-[1,2]dithiol-3-yl)]-benzoate]
[11]; benzyl alcohol
  Solubility: 1400 ± 700 µg/mL (≈ 1.64 mM)
[11]; methanol
  Solubility: 3820 ± 300 µg/mL (≈ 4.46 mM)
[11]; pH 7.2 phosphate buffer (0.1 M)
  Solubility: 30 ± 10 µg/mL (≈ 0.035 mM)
[11]; propylene glycol
  Solubility: 2830 ± 300 µg/mL (≈ 3.31 mM)
[11]; water/acetonitrile (60/40 v/v)
  Solubility: 3400 ± 500 µg/mL (≈ 3.97 mM)
[12]; methanol
  Residual Concentration % t30: 98.7%
[12]; water/acetonitrile (60/40 v/v)
  Residual Concentration % t30: 97.3%
[13]; in presence of CTAB
  Residual Concentration % t24: 100%
  Residual Concentration % t0: 100%
[13]; in presence of Cremophor RH60
  Residual Concentration % t24: 0%
  Residual Concentration % t0: 5%
[13]; in presence of Epikuron 200
  Residual Concentration % t24: 100%
  Residual Concentration % t0: 100%
[13]; in presence of NaGC
  Residual Concentration % t24: 98%
  Residual Concentration % t0: 100%
[13]; in presence of NaTC
  Residual Concentration % t24: 0%
  Residual Concentration % t0: 34%
[13]; in presence of ST
  Residual Concentration % t24: 14%
  Residual Concentration % t0: 44%
[14]
  H2S-DOXO release in 5 h: ~100%
MCF-7 cells [1]
  acute toxicity, release of LDH: comparable
MDA-MB-231 cells [2]
  acute toxicity, release of LDH: induced a significant release of LDH
U-2OS cells [3]
  acute toxicity, release of LDH: comparable
U-2OS/DX580 cells [4]
  acute toxicity, release of LDH: induced a significant release of LDH
JC cells [5]
  acute toxicity, release of LDH: induced a significant release of LDH
K7M2 cells [6]
  acute toxicity, release of LDH: induced a significant release of LDH
MCF-7 cells [15]
  subacute toxicity, reduced cell viability: did not offer any further advantage compared to DOXO
MDA-MB-231 cells [7]
  subacute toxicity, reduced cell viability: significantly more effective than DOXO
U-2OS cells [16]
  subacute toxicity, reduced cell viability: did not offer any further advantage compared to DOXO
U-2OS/DX580 cells [8]
  subacute toxicity, reduced cell viability: significantly more effective than DOXO
JC cells [9]
  subacute toxicity, reduced cell viability: significantly more effective than DOXO
K7M2 cells [10]
  subacute toxicity, reduced cell viability: significantly more effective than DOXO
[17]
  t1/2 of hydrolysis: 2.8 h
[18]
  cytotoxicity: high cytotoxicity
  intracellular accumulation: good intracellular accumulation
DU-145 cells; [19]
  percentage of apoptotic cells: an increase in the percentage of apoptotic cells
  reduction in tumor volume: 60%
DU-145 cells; nude mice with subcutaneous DU-145 cells
  tolerability / safety profile: well tolerated and had a better safety profile
